Tested on: Plasmodium falciparum
Experiment: Antiplasmodial activity against Plasmodium falciparum NF54 infected human A+ erythrocytes after 72 hrs as IC ratio relative to dihydroartemisinin
Type: functional

Row | SMILES | Ratio IC50
1 | C=C(C)[C@@H]1OOC(C)(C)O[C@@H]1CCO[C@H]1C[C@@H]2O[C@]3(C)CC[C@H]4[C@H](C)CC[C@@H]([C@H]1C)[C@@]24OO3 | 0.54
2 | C=C(C)[C@@H]1OOC2(CCCCC2)O[C@@H]1CCOC1C[C@@H]2O[C@]3(C)CC[C@H]4[C@H](C)CC[C@@H]([C@H]1C)[C@@]24OO3 (mixture of isomers) | 0.49
